According to patent US20250002470A1, “NITROGEN-CONTAINING COMPOUND, PREPARATION METHOD THEREFOR AND APPLICATION THEREOF” (ZHEJIANG AIXPLORER BIOTECH CO., LTD., priority 2021, published 2025):

How the values were obtained:
[1] = In vivo pharmacokinetic evaluation in mice (IV and PO); settings: CD-1 mice
Description: CD-1 mice, after fasting overnight (free drinking), are divided into tail vein (IV) and gavage administration (PO) groups. The tail vein administration group collected 0.1 mL of blood from the orbital venous plexus before administration and 5 minutes, 15 minutes, 0.5 hours, 1 hour, 2 hours, 4 hours, 8 hours, 12 hours, and 24 hours after administration, and sample centrifugation at 4° C. for 5 minutes, and stored at −70° C. for testing. […] The plasma parent drug concentration was determined by LC-MS/MS.

IL-1β = IL-1β cytokine in LPS-induced sepsis mouse model; format: in vivo, C57BL/6J mice; settings: for IL-1β: given 30 minutes before LPS (10 mg/kg i.p.), serum 2 hours after LPS
Description: (§1) The purpose of this study was to investigate and evaluate the inhibitory effect of the test compound on […] and IL-18 cytokine production in a mouse model of lipopolysaccharide (LPS)-induced sepsis.
(§2) 6-8 weeks female C57BL/6J mice, randomized, 5 animals in the Naïve group, and the rest of the groups (vehicle group, 15 mg/kg group with embodiment 33 compound, 50 mg/kg group with embodiment 33 compound and 150 mg/kg group with embodiment 33 compound, wherein 15 mg/kg, 50 mg/kg and 150 mg/kg is the dosage of embodiment 33, mg/kg is referred to as mpk) 10 animals per group. Among them, the Naïve group was not stimulated with LPS, and the 10 mice in each group were intraperitoneally injected with LPS (10 mg/kg) to induce sepsis model in the mouse. The vehicle (corresponding to the vehicle group) and the test compound (corresponding to the 15mpk group of Example 33, the 50mpk group of Example 33 and the 150mpk group of Example 33 respectively) were administered 30 minutes before LPS stimulation. 2 hours after LPS stimulation, the mice were euthanized, and whole blood was collected from the heart and placed in EP tubes, left to stand at room temperature for 1 hour, and centrifuged at 8000 rpm for 10 minutes to collect serum for measurement of cytokines IL-10 and IL-18.
For the standard pellet in the IL-10 cytokine CBA kit, put the IL-10 standard pellet into a 15 mL centrifuge tube, add 4 mL of Assay Diluent, and let it stand at room temperature for more than 15 minutes; • After the supernatant sample is melted and mixed evenly, the supernatant is diluted 2 times; • Preparation of standard reagent: Add the diluent Assay Diluent in advance to the 96-well V-shaped bottom plate, 100 μL/well. Add 200 μL of the standard that has been left to stand for 15 minutes into the well plate, and add 100 μL each time to the diluent in sequence. Gradually dilute the standard to 11 gradients (double dilution each time). The 12th hole is used as Blank, 200 μL/well; • Preparation of Capture beads reagent: Take the capture beads in the IL-10 cytokine CBA kit and vortex for 30 seconds. Prepare the Beads as follows: 60 μL IL-10 beads+2440 μL capture beads diluent (60 wells); mix evenly, 50 μL/well, add it to a […] V-bottom plate; shake at 200 g for 5 minutes, and incubate at room temperature for 1 hour; • Preparation of Detection reagent: Take the PE Detection from the IL-10 cytokine CBA kit and vortex for 30 seconds. Prepare the PE as follows: 60 μL IL-10 Detection+2440 μL PE detection diluent; mix evenly. […]

IL-18 = IL-18 cytokine in LPS-induced sepsis mouse model; format: in vivo, C57BL/6J mice; settings: for IL-18: given 30 minutes before LPS (10 mg/kg i.p.), serum 2 hours after LPS
Description: as §1, §2
After the kit is taken out of the refrigerator, it should be equilibrated at room temperature (25-28° C.) for 20 minutes; the remaining reagents should be stored at 4° C. immediately after each test.
Prepare an appropriate amount of standard diluent: dilute the standard diluent (5×) to 1× with double-distilled or deionized water. For example, add 10 mL of standard diluent (5×) to 40 mL of water and mix well to obtain a 1× standard. Diluent.
Prepare an appropriate amount of washing liquid: Dilute the washing liquid (20×) with double-distilled or deionized water to 1×. For example, add 10 mL of washing liquid (20×) to 190 mL of water and mix well to obtain a 1×washing liquid.
Standard preparation: Add the standard diluent to one bottle of standard according to the volume (0.5 mL) marked on the standard label, incubate at room temperature for 15 minutes, then mix gently and pipet several times with a pipette to completely dissolve the standard. The final concentration of the standard reaches 1500 pg/mL. Take […] 1.5 mL centrifuge tubes, add 250 μL of standard diluent to each tube in advance, and perform dilutions of the standard to obtain a total of 1500, 750, 375, 187.5, 93.75, 46.875, and 23.4375 pg/mL. standard concentration, and finally add the diluted standard to the pre-coated plate wells in sequence, and add the standard diluent directly as a concentration of 0 pg/mL, for a total of 8 standard concentrations. […]

Cc1nc(N[C@@H]2CCCC[C@H]2O)nnc1-c1ccc(C(F)(F)F)cc1O [Embodiment 33]
F ([1]; PO, 20 mg/kg): 98.0%
AUC ([1]; mouse, plasma, IV, 3 mg/kg): 4600 ng·h/mL
clearance ([1]; mouse, plasma, IV, 3 mg/kg): 10.9 mL/min/kg
half-life ([1]; mouse, plasma, IV, 3 mg/kg): 4.89 h
Vd ([1]; mouse, plasma, IV, 3 mg/kg, read-out: Vss): 2.6 L/kg
AUC ([1]; mouse, plasma, PO, 20 mg/kg): 30000 ng·h/mL
Cmax ([1]; mouse, plasma, PO, 20 mg/kg): 8520 ng/mL
half-life ([1]; mouse, plasma, PO, 20 mg/kg): 3.6 h
IL-1β (IL-1β; 15 mpk): 310.1 ± 32.88
IL-1β (IL-1β; 50 mpk): 213.4 ± 25.66
IL-1β (IL-1β; 150 mpk): 19.36 ± 5.166
inhibitory effect on IL-1β compared with the Vehicle group (IL-1β; three dose groups (15, 50, 150 mg/kg)): significant inhibitory effect
IL-18 (IL-18; 15 mpk): 560.5 ± 46.39
IL-18 (IL-18; 50 mpk): 320.1 ± 29.69
IL-18 (IL-18; 150 mpk): 216.2 ± 9.238
inhibitory effect on IL-18 compared with the Vehicle group (IL-18; two doses of 50 mg/kg and 150 mg/kg): significant inhibitory effect
